According to patent US4210638A, “Antiviral composition and method of treating virus diseases” (PCR, Inc., priority 1978, dated 1980):

What was measured:
uninfected cells = details: cited from earlier work; for toxicity towards uninfected cells compared with deoxyuridine compounds: Greer et al. 1975; for toxicity in culture: cell culture
[1] = tested on: HSV infections of the eye; details: cited from earlier work; for antiviral activity against HSV infections of the eye: Kaufman 1962 / Heidelberger
Herpes simplex = details: cited from earlier work
[2] = tested on: uridine and thymidine phosphorylase; details: cited from earlier work
[3] = molecular target: T1, HSV-2 induced pyrimidine deoxyribonucleoside kinase (Human herpesvirus 2 strain HG52, UniProt P89446); assay: Phosphorylation by HSV-2 induced pyrimidine deoxyribonucleoside kinase; format: biochemical; details: for nmoles phosphorylated/60min.: solutions a, c, d adjusted to the same O.D.
T1 construct: preparation not described in the excerpts
T1 sequence (P89446 whole entry): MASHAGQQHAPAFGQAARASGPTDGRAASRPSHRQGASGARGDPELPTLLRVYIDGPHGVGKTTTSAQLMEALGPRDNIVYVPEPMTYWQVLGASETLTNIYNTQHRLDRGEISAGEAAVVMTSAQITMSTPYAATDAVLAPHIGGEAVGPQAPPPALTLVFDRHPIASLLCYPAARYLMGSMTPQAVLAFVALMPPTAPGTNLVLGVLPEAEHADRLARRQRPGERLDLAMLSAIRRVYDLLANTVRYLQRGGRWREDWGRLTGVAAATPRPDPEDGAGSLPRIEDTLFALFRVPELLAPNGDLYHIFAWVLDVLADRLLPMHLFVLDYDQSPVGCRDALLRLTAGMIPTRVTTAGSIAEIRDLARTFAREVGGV
Text: The following spots were eluted into H2 O and scanned from 225 to 350 nm: (a) standard, (b) F3 methyl dC standard, […] spot after cytidine deaminase treatment of F3 dT and […] spot after cytidine deaminase treatment of F3 methyl dC. The u.v. absorption profile of F3 dT derived from deamination of F3 methyl dC is identical to that obtained from authentic F3 dT.
Solutions a, c, and d, above, were adjusted to the same O. D. and used as substrates for HSV-2 induced pyrimidine deoxyribonucleoside kinase. Results:
Stock solutions of F3 dT and F3 methyl dC were made up and adjusted to the same concentration as the F3 dT and F3 methyl dC purified chromatographically (solutions a and b, respectively). Usually, F3 methyl dC is phosphorylated 1/6 of the extent that F3 dT is phosphorylated. […] This experiment was performed twice. Results:
Values for chromatographically purified samples are probably lower due to impurities arising from non-acid washed paper.

cytidine deaminase = assay: Incubation with crude cytidine deaminase extract of HEP-2 cells (deamination); format: in vitro ADME, human; details: crude HEP-2 cytidine deaminase extract; Whatman 3MM chromatography
[4] = Incubation with HNO2 (pH 4.5) at room temperature; format: physicochemical
Protocol: (§1) The results of incubation with HNO2 (pH 4.5) at room temperature were identical to those obtained above.

[5] = Incubation with acetate buffer (pH 4.5); format: physicochemical; details: 9 hours
Protocol: as §1

[6] = in vivo; cited from earlier work
HEp-2 cells = assay: Cytotoxicity vs HEp-2 cells (colony formation, % survival)
human encephalitis = details: in vivo; cited from earlier work
HSV-2 = assay: Antiviral activity vs HSV-2 in HEp-2 cells (plaque assay in BHK cells); format: cell-based; details: 100 or 500 μg/ml
Protocol: The culture medium containing the nucleoside analogs at varying concentrations are added to the infected cultures. In the case of HEp-2 cells which contain high deaminase levels, H4 U is incorporated into the medium. At 48 hours, virus is harvested from the cultures by freezing and thawing. The virus produced from each culture is titred by plaque assay in BHK cells. By using this protocol the antiviral effectiveness of F3 methyl dC can be compared directly with the effectiveness of other antiviral agents. Furthermore, by including H4 U in the medium, the effectiveness of F3 methyl dC can be determined without deamination at the nucleoside level.

man = details: extremely high concentrations; cited from earlier work
recurrent genital Herpes = details: in vivo; cited from earlier work
vaccinia = details: Shugar 1974; cited from earlier work
vesicular stomatitis = details: Shugar 1974; cited from earlier work
animal systems = details: usually must be administered very soon after infection; cited from earlier work

For `Nc1nc(=O)n([C@H]2C[C@H](O)[C@@H](CO)O2)cc1Br` [BrdC, 5-bromo-2'-deoxycytidine], the “toxicity towards uninfected cells compared with deoxyuridine compounds” value (uninfected cells) is listed as “substantially less toxic towards uninfected cells”.

In the case of `O=c1[nH]c(=O)n([C@H]2C[C@H](O)[C@@H](CO)O2)cc1F` [5-fluorodeoxyuridine], the “antiviral activity against HSV infections of the eye” value (from here on “antiviral activity … of the eye”) [1] is given as “very little antiviral activity”.

In the case of `N#CSc1cn([C@H]2C[C@H](O)[C@@H](CO)O2)c(=O)[nH]c1=O` [5-thiocyanato-2'-deoxyuridine], the toxicity in culture (uninfected cells) is given as “non-toxic in culture”, the “antiviral activity against Herpes simplex in cell culture” value (from here on “antiviral activity … in cell culture”) (Herpes simplex) is given as “do exhibit antiviral activity” and the “substrate for catabolic enzymes uridine and thymidine phosphorylase” value (shortened to “substrate”) [2] is given as “substrates for the catabolic enzymes”.

For `CCCc1cn([C@H]2C[C@H](O)[C@@H](CO)O2)c(=O)[nH]c1=O` [5-propyl-2'-deoxyuridine], the toxicity in culture (uninfected cells) is listed as “non-toxic in culture”, the “antiviral activity … in cell culture” value (Herpes simplex) is listed as “do exhibit antiviral activity” and the “substrate” value [2] is listed as “substrates for the catabolic enzymes”.

For `CNc1cn([C@H]2C[C@H](O)[C@@H](CO)O2)c(=O)[nH]c1=O` [5-methyl amino-2'-deoxyuridine], the toxicity in culture (uninfected cells) is listed as “non-toxic in culture” and the “substrate” value [2] is listed as “substrates for the catabolic enzymes”.

With `O=c1[nH]c(=O)n([C@H]2C[C@H](O)[C@@H](CO)O2)cc1C(F)(F)F` [F3 dT, 5-trifluoromethyl-2'-deoxyuridine] the “nmoles phosphorylated/4 hrs” value ([3]; chromatographically purified, value in parentheses (experiment performed twice)) was 0.19 nmoles/4 hrs, the “nmoles phosphorylated/4 hrs” value ([3]; chromatographically purified, value outside parentheses) was 0.16 nmoles/4 hrs and the “extent of phosphorylation compared with F3 dT” value ([3]; product of cytidine deaminase treatment of F3 methyl dC (d)) was “to the same extent as F3 dT”. For the same compound, the “nmoles phosphorylated/60min.” value ([3]; listed as a) was 0.07 nmoles/60min, the “nmoles phosphorylated/60min.” value ([3]; listed as c) was 0.08 nmoles/60min and the “nmoles phosphorylated/60min.” value ([3]; listed as d) was 0.05 nmoles/60min. For the same compound, the “nmoles phosphorylated/4 hrs” value ([3]; standard solutions, value in parentheses (experiment performed twice)) was 0.57 nmoles/4 hrs, the “nmoles phosphorylated/4 hrs” value ([3]; standard solutions, value outside parentheses) was 0.48 nmoles/4 hrs and the “chromatographic change on incubation with cytidine deaminase” value (cytidine deaminase) was “remained unchanged chromatographically”. The “change on incubation with HNO2” value [4] was “remained unaltered”, the “modification in acetate buffer” value [5] was “did not lead to modification” and the “antiviral activity … of the eye” value [1] was “does exhibit antiviral activity against infections of the eye”. The “catabolism in the body” value [6] was “rapid catabolism”, the “toxicity towards uninfected cells” value (uninfected cells) was “exhibit toxicity towards uninfected cells” and the “cytotoxicity at concentrations with antiviral activity” value (HEp-2 cells; ±H4 U) was “extremely cytotoxic”.

In the case of `O=c1[nH]c(=O)n([C@H]2C[C@H](O)[C@@H](CO)O2)cc1I` [IdU, 5-iodo-2'-deoxyuridine], the “antiviral activity … of the eye” value [1] is given as “exhibits antiviral activity against HSV infections of the eye”, the “effectiveness against Herpes Keratitis compared with F3 dT” value ([1]; in vivo) is given as “less effective than F3 dT” and the “catabolism in the body” value [6] is given as “rapid catabolism”. For the same compound, the “toxicity towards uninfected cells” value (uninfected cells) was “exhibit toxicity towards uninfected cells” and the “effectiveness in human Herpes encephalitis” value (human encephalitis) was “ineffectiveness”.

For `C=CCc1cn([C@H]2C[C@H](O)[C@@H](CO)O2)c(=O)[nH]c1=O` [5-allyl-2'-deoxyuridine], the toxicity in culture (uninfected cells) is given as “non-toxic in culture”, the “antiviral activity … in cell culture” value (Herpes simplex) is given as “do exhibit antiviral activity” and the “substrate” value [2] is given as “substrates for the catabolic enzymes”.

For `O=c1[nH]c(=O)n([C@H]2C[C@H](O)[C@@H](CO)O2)cc1-c1ccccc1` [5-phenyl-2'-deoxyuridine], the toxicity in culture (uninfected cells) is given as “non-toxic in culture”, the “antiviral activity … in cell culture” value (Herpes simplex) is given as “do exhibit antiviral activity” and the “substrate” value [2] is given as “substrates for the catabolic enzymes”.

In the case of `CCc1cn([C@H]2C[C@H](O)[C@@H](CO)O2)c(=O)[nH]c1=O` [5-ethyl-2'-deoxyuridine], the toxicity in culture (uninfected cells) is listed as “non-toxic in culture”, the “antiviral activity … in cell culture” value (Herpes simplex) is listed as “do exhibit antiviral activity” and the “substrate” value [2] is listed as “substrates for the catabolic enzymes”.

In the case of `O=C1NC(O)CCN1[C@@H]1O[C@H](CO)[C@@H](O)[C@H]1O` (some centres unmarked) [H4 U, tetrahydrouridine, reference compound], the “antiviral activity of H4 U” value (HSV-2) is listed as “does not display any antiviral activity”, the toxicity in man (man) is listed as “not toxic in man at extremely high concentrations” and the “cytotoxic activity of H4 U” value (HEp-2 cells; 100 or 500 μg/ml) is listed as “does not display any cytotoxic activity”.

For `Nc1ncnc2c1ncn2[C@@H]1O[C@H](CO)[C@@H](O)[C@@H]1O` [Adenine arabinoside], the “incidence of death due to human encephalitis” value (human encephalitis) is listed as “decrease the incidence of death” and the “effect against recurrent genital Herpes” value (recurrent genital Herpes) is listed as “neither effective against recurrent genital Herpes”.

In the case of `CCc1cn([C@H]2C[C@H](O)[C@@H](CO)O2)c(=O)nc1N` [5-ethyl-2'-deoxycytidine], the “antiviral activity against HSV infected cells” value (Herpes simplex; Shugar 1974) is given as “only a low antiviral activity”, the activity against vaccinia (vaccinia) is given as “no activity” and the “activity against vesicular stomatitis” value (vesicular stomatitis) is given as “no activity”.

For `Nc1nc(=O)n([C@H]2C[C@H](O)[C@@H](CO)O2)cc1I` [IdC, 5-iodo-2'-deoxycytidine], the “treatment of Herpes Keratitis in humans compared with IdU” value ([1]; humans, Kurimoto et al. 1969) is given as “more effective” and the “toxicity towards uninfected cells compared with deoxyuridine compounds” value (uninfected cells) is given as “substantially less toxic towards uninfected cells”.

For `Nc1ncnc2c1ncn2[C@@H]1O[C@H](COP(=O)(O)O)[C@@H](O)[C@@H]1O` [ara-AMP], the “effect against recurrent genital Herpes” value (recurrent genital Herpes) is given as “neither effective against recurrent genital Herpes”.

In the case of `O=C(O)CP(=O)(O)O` [Phosphonacetic acid], the “efficacy in animal systems” value (animal systems) is listed as “effective in animal systems”.

For `O=C1NC(O)CCN1[C@H]1C[C@H](O)[C@@H](CO)O1` (some centres unmarked) [2'-deoxytetrahydrouridine], the toxicity in man (man) is listed as “not toxic in man at extremely high concentrations”.

For `Cc1cn([C@H]2C[C@H](O)[C@@H](CO)O2)c(=O)nc1N` [5-methyl-2'-deoxycytidine], the “antiviral activity against HSV infected cells compared with 5-methyl-2'-deoxyuridine” value (Herpes simplex; Lin and Prusoff 1977) is given as “less effective”.
